# Laboratory results reported in patent publication US20220372040A1, “METTL3 MODULATORS” (Accent Therapeutics, Inc., priority 2020, published 2022).
# pIC50: −log10 of the molar value.
# Experiments:
# [1] = system: m^6 A in cellular mRNA of MOLM-13 cells; assay: m^6 A-mRNA LC-MS/MS assay (m^6 A cellular assay); type: cell-based; settings: Homo sapiens, 24 hours incubation, LC-MS/MS of m^6 A/A in mRNA
# Method: m^6 A-mRNA LC-MS/MS Assay
# 5×10^6 MOLM-13 (DSMZ) cells were seeded into 10 cm dishes in RPMI 1640 media containing 10% fetal bovine serum and placed in a humidified tissue culture incubator at 37° C. overnight. Compounds were resuspended in 100% DMSO and dosed into each dish at a fixed concentration to comprise an 8-point dose response with a 4-fold serial dilution ranging from 25 μM to 1.5 nM in 0.25% DMSO final and allowed to incubate for 24 hours in a humidified tissue culture incubator at 37° C. Cells were harvested by centrifugation followed by mRNA extraction using DTRECT Dynabeads mRNA DTRECT kit (Life Technologies). mRNA was quantified on NanoDrop spectrophotometer (Thermo Fisher Scientific) and digested into single nucleosides using Nucleoside Digestion Mix (New England Biolabs). Nucleosides are quantified with retention time on a BEH […] column (Waters) and the nucleoside-to-base ion mass transition of 282.1-150.1 (m^6 A) and 268-136 (A) on an API 6500+ triple quadrupole mass spectrometer. Quantification is performed in comparison with the standard curve, obtained from pure nucleoside standards (Selleck Chemicals) running with the same batch of samples. Percentage m^6 A in cellular mRNA is calculated as 100*(m^6 A/A).
# METTL3/METTL14 = METTL3/METTL14 (Homo sapiens, UniProt Q86U44); assay: METTL3-14 standard enzyme assay (3H-SAM flashplate scintillation); type: biochemical; settings: METTL3/METTL14 2.5 nM, RNA 100 nM, 3H-SAM 100 nM, 30 min
# Sequence of METTL3/METTL14 (Q86U44 whole entry, species assumed): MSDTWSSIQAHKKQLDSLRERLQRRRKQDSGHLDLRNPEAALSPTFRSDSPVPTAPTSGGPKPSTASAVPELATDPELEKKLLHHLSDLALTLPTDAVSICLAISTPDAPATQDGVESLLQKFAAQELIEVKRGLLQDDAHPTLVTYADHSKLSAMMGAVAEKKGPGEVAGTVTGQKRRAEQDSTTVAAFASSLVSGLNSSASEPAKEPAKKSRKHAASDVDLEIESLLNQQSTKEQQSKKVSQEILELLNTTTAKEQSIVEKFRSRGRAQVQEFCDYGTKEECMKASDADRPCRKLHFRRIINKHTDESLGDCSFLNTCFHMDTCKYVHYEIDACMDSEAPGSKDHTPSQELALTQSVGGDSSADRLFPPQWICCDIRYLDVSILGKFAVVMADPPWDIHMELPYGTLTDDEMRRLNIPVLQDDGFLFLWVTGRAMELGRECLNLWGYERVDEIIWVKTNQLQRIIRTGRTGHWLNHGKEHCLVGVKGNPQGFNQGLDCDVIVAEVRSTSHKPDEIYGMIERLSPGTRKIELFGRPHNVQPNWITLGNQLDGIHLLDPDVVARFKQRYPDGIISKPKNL
# Sequence of METTL3/METTL14 (Q9HCE5 whole entry partner, species assumed): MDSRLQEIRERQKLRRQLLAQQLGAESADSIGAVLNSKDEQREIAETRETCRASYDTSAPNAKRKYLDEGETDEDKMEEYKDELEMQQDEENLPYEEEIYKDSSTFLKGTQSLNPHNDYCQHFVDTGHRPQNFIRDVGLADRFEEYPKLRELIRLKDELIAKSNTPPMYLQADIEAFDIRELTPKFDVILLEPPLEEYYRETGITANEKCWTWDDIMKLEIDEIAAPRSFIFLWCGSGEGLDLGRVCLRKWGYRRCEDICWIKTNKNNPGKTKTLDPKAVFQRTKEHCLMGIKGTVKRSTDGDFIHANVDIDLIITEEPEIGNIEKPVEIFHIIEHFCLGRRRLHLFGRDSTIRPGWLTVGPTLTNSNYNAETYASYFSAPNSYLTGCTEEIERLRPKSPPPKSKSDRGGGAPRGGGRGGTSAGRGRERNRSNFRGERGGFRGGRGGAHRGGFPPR
# In short: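 METTL3/METTL14 (2.5 nM final) preincubated 5 min with compound in 20 mM HEPES pH 7.5, 50 mM KCl, 250 μM MgCl2, 1 mM DTT, ambient temperature; started with 100 nM 3′-biotinylated RNA (UCUGGACUAAA) and 100 nM 3H-SAM. After 30 min, quenched with 15 μM cold SAM; methylated RNA captured on streptavidin flashplates and counted by scintillation.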
# MOLM-13 cells = assay: MOLM-13 48 Hour cell proliferation assay (Cell Titer-Glo); type: cell-based; settings: Homo sapiens
# Method: MOLM-13 48 Hour Cell Proliferation Assay
# MOLM-13 (DSMZ) cells were seeded at 1000 cells per well in a volume of 44 μL in a Falcon 384-well tissue culture treated clear bottom microplate in RPMI 1640 media containing 10% fetal bovine serum using a Multidrop Combi (ThermoFisher Scientific). Cells were incubated overnight at 37° C. in a humidified tissue culture incubator. The Mosquito® HTS Liquid Handler was used to make a compound/media intermediate plate by aliquoting […] of compound from the initial compound dilution plate (concentrations ranging from 10.0 mM to 38.0 nM in 100% DMSO) into a V bottom 384-well screen matrix plate containing 49 µL of media containing the appropriate serum (50-fold dilution, 2% DMSO). The Apricot liquid handling system was used to transfer […] compounds from the intermediate plate into the Falcon 384-well tissue culture plate containing 44 μL cells (10-point, 4-fold dilution spanning concentrations 25.0 μM to […], 0.25% DMSO final), and placed in a humidified tissue culture incubator at 37° C. After 48 hours, 25 μL of Cell Titer-Glo reagent (Promega) was added to each well using a Multidrop Combi. The plate was protected from light and placed on an IKA plate shaker for at 300 rpm for 10 minutes at room temperature. The plate was read on an EnVision plate reader (Perkin Elmer) using the Ultra Sensitive Luminescence protocol. Data analysis was performed by normalizing the raw luminescence units to an average of the positive control values for staurosporine (100% cell death) and the negative control values for DMSO (0% cell death). An IC50 was calculated using a 4-parameter logistic nonlinear regression model in GraphPad Prism.
# PRMT5-MEP50 = PRMT5-MEP50 (Homo sapiens, UniProt O14744); assay: PRMT5 assay (3H-SAM flashplate scintillation); type: biochemical; settings: PRMT5-MEP50 2.5 nM, histone H4 peptide 100 nM, 3H-SAM 250 nM, 60 min
# Sequence of PRMT5-MEP50 (O14744 whole entry): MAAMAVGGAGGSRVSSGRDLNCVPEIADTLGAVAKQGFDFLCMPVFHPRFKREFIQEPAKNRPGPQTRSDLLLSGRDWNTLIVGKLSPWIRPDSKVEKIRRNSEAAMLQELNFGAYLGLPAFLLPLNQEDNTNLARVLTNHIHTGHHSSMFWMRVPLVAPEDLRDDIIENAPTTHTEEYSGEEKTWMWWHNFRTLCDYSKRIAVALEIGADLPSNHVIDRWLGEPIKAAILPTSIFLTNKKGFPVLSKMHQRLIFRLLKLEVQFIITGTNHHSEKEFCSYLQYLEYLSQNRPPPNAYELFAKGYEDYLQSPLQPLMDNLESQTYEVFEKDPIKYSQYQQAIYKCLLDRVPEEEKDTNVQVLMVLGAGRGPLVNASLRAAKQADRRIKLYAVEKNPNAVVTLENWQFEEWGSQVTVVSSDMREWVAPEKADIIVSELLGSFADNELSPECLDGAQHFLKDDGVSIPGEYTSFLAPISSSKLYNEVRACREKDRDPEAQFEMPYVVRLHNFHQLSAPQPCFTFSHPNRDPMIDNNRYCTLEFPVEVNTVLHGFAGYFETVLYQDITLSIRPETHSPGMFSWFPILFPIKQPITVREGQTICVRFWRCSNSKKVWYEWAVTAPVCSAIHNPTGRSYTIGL
# Sequence of PRMT5-MEP50 (Q9BQA1 whole entry partner): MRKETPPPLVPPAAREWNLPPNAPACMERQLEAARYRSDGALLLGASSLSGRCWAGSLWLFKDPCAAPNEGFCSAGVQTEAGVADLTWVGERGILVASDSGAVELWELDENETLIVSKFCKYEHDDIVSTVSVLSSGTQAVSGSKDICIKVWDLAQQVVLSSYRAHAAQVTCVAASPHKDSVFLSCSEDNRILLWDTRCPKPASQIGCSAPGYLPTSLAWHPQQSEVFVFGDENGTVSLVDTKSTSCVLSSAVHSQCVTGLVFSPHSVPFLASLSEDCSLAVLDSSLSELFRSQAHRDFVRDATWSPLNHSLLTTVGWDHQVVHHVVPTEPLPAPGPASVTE
# In short: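 PRMT5-MEP50 (2.5 nM final) preincubated 5 min with compound, then reacted 60 min at ambient temperature with 100 nM biotinylated N-acetyl histone H4 peptide and 250 nM 3H-SAM in 20 mM Tris-HCl pH 8.0, 1 mM DTT, 0.01% Tween. Quenched with 15 μM cold SAM; methylated peptide captured on streptavidin flashplates, scintillation counted.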
SMILES,pIC50 [1],pIC50 (METTL3/METTL14),pIC50 (MOLM-13 cells),pIC50 (PRMT5-MEP50)
CNc1ccc2ccc(OCc3cncc(-n4cc(CC5CC5)c5c(N)ncnc54)c3)cc2n1 [Compound I-29],5.00 to 6.00,> 8.00,> 6.00,< 6.00
CNc1ccc2ccc(CCc3cncc(-n4ccc5c(N)ncnc54)c3)cc2n1 [Compound I-30],5.00 to 6.00,7.00 to 8.00,5.00 to 6.00,< 6.00
CNc1ccc2ccc(OCc3cc(CO)cc(-n4cc(Cl)c5c(N)ncnc54)c3)cc2n1 [Compound I-34],≤ 5.00,> 8.00,> 6.00,< 6.00
CNc1ccc2ccc(OCc3cncc(-n4cc(-c5ccnn5C)c5c(N)ncnc54)c3)cc2n1 [Compound I-35],≤ 5.00,> 8.00,> 6.00,< 6.00
CNc1ccc2ccc(OCc3cncc(-n4c(C)cc5c(N)ncnc54)c3)cc2n1 [Compound I-36],5.00 to 6.00,7.00 to 8.00,5.00 to 6.00,< 6.00
CNc1ccc2ccc(OCc3cncc(-n4cc(C5CCCC5)c5c(N)ncnc54)c3)cc2n1 [Compound I-58],5.00 to 6.00,> 8.00,> 6.00,< 6.00
CCNc1ccc2ccc(OCc3cccc(-n4cc(Cl)c5c(N)ncnc54)c3)cc2n1 [Compound I-61],,7.00 to 8.00,,< 6.00
CNc1ccc2cc(CCc3cccc(-n4cc(Cl)c5c(N)ncnc54)c3)ccc2n1 [Compound I-70],≤ 5.00,6.00 to 7.00,5.00 to 6.00,< 6.00
"CNc1ccc2ccc(OCc3cncc(-n4cc(Cl)c5c(N)ncnc54)c3)cc2n1 [Compound I-74, 7-((5-(4-amino-5-chloro-7H-pyrrolo[2,3-d]pyrimidin-7-yl)pyridin-3-yl)methoxy)-N-methylquinolin-2-amine]",5.00 to 6.00,> 8.00,5.00 to 6.00,< 6.00
CNc1ccc2ccc(OCc3cc(Br)cc(-n4cc(Cl)c5c(N)ncnc54)c3)cc2n1 [Compound I-75],,6.00 to 7.00,,< 6.00
CNc1ccc2ccc(OCc3cccc(-n4cc(Cl)c5c(N)ncnc54)c3)cc2n1 [Compound I-87],,7.00 to 8.00,5.00 to 6.00,< 6.00
Nc1nc2cc(OCc3cncc(-n4ccc5c(N)ncnc54)c3)ccc2cc1Br [Compound I-111],,< 6.00,,< 6.00
CNc1ccc2ccc(OCc3cncc(-n4cc([C@H]5CCCO5)c5c(N)ncnc54)c3)cc2n1 [Compound I-112],5.00 to 6.00,> 8.00,,< 6.00
CNc1ccc2ccc(OCc3cncc(-n4cc([C@@H]5CCCO5)c5c(N)ncnc54)c3)cc2n1 [Compound I-113],> 6.00,> 8.00,,< 6.00
Cn1ccc(-c2cn(-c3cncc(CCc4ccc5ccc(N)nc5c4)c3)c3ncnc(N)c23)n1 [Compound I-114],,> 8.00,,< 6.00
CCc1cc(NCCOC)c2ccc(CCc3cncc(-n4cc(-c5ccn(C)n5)c5c(N)ncnc54)c3)cc2n1 [Compound I-115],> 6.00,> 8.00,,< 6.00
CNc1ccc2ccc(CCc3cncc(-n4cc(F)c5c(N)ncnc54)c3)cc2n1 [Compound I-116],,> 8.00,,< 6.00
CCc1cc(N(C)CCOC)c2ccc(CCc3cncc(-n4cc(-c5ccn(C)n5)c5c(N)ncnc54)c3)cc2n1 [Compound I-117],> 6.00,> 8.00,,< 6.00
CCc1cc(N2CCC(F)(F)CC2)c2ccc(OCc3cncc(-n4ccc5c(N)ncnc54)c3)cc2n1 [Compound I-118],,> 8.00,,< 6.00
CNc1ccc2ccc(OCc3cncc(-n4cc(C(C)C5CC5)c5c(N)ncnc54)c3)cc2n1 (centres unmarked) [Compound I-120],,> 8.00,,< 6.00
CCc1cc(N2CCNCC2)c2ccc(OCc3cncc(-n4cc(-c5ccn(C)n5)c5c(N)ncnc54)c3)cc2n1 [Compound I-121],5.00 to 6.00,> 8.00,,< 6.00
CCc1cc(NC)c2ccc(CCc3cncc(-n4cc(-c5ccn(C)n5)c5c(N)ncnc54)c3)cc2n1 [Compound I-122],,> 8.00,,< 6.00
Cn1ccc(-c2cn(-c3cncc(CCc4ccc5cc(Br)c(N)nc5c4)c3)c3ncnc(N)c23)n1 [Compound I-123],,< 6.00,,< 6.00
C[C@@H]1CCN1c1ccc2ccc(OCc3cncc(-n4cc(C5CCCC5)c5c(N)ncnc54)c3)cc2n1 [Compound I-124],,7.00 to 8.00,,< 6.00
Nc1ncnc2c1c(C1CCCO1)cn2-c1cncc(CCc2ccc3ccc(N4CCC4)nc3c2)c1 (centres unmarked) [Compound I-126],5.00 to 6.00,> 8.00,,< 6.00
CCc1cc(NCCCN(C)C)c2ccc(CCc3cncc(-n4ccc5c(N)ncnc54)c3)cc2n1 [Compound I-127],,> 8.00,,< 6.00
CCNc1ccc2ccc(OCc3cncc(-n4cc(-c5ccn(C)n5)c5c(N)ncnc54)c3)cc2n1 [Compound I-128],5.00 to 6.00,> 8.00,,< 6.00
CNc1ccc2ccc(OCc3cncc(-n4cc(-c5ccc(C)o5)c5c(N)ncnc54)c3)cc2n1 [Compound I-234],5.00 to 6.00,> 8.00,,< 6.00
CNc1ccc2ccc(OCc3cncc(-n4cc(-c5ncco5)c5c(N)ncnc54)c3)cc2n1 [Compound I-235],,> 8.00,,< 6.00
